This is an account of results in patent publication US8883781B2, “Thienopyrimidines useful as modulators of ion channels” (Vertex Pharmaceuticals Incorporated, priority 2006, dated 2014).

Assay [1] addresses T1, NaV1.8 (Homo sapiens, UniProt Q9Y5Y9). The assay is described as follows: Activity against NaV 1.8 channel (Table 4). Type of assay: cell-based. As to the method:
Compounds of the invention are useful as antagonists of voltage-gated sodium ion channels. Antagonist properties of test compounds were assessed as follows. Cells expressing the NaV of interest were placed into microtiter plates. After an incubation period, the cells were stained with fluorescent dyes sensitive to the transmembrane potential. The test compounds were added to the microtiter plate. The cells were stimulated with either a chemical or electrical means to evoke a NaV dependent membrane potential change from unblocked channels, which was detected and measured with trans-membrane potential-sensitive dyes. Antagonists were detected as a decreased membrane potential response to the stimulus. The optical membrane potential assay utilized voltage-sensitive FRET sensors described by Gonzalez and Tsien (See, Gonzalez, J. E. and R. Y. Tsien (1995) “Voltage sensing by fluorescence resonance energy transfer in single cells” Biophys J 69(4):1272-80, and Gonzalez, J. E. and R. Y. Tsien (1997) “Improved indicators of cell membrane potential that use fluorescence resonance energy transfer” Chem Biol 4(4): 269-77) in combination with instrumentation for measuring fluorescence change such as the Voltage/Ion Probe Reader (VIPR®) (See, Gonzalez, J. E., K. Oades, et al. (1999) “Cell-based assays and instrumentation for screening ion-channel targets” Drug Discov Today 4(9): 431-439).
24 hours before the assay on VIPR, CHO cells endogenously expressing a NaV 1.2 type voltage-gated NaV are seeded in 96-well poly-lysine coated plates at 60,000 cells per well. Other subtypes are performed in an analogous mode in a cell line expressing the NaV of interest.
The following is an example of how NaV1.3 inhibition activity is measured using the optical membrane potential method#2. Other subtypes are performed in an analogous mode in a cell line expressing the NaV of interest.
HEK293 cells stably expressing NaV1.3 are plated into 96-well microtiter plates. After an appropriate incubation period, the cells are stained with the voltage sensitive dyes CC2-DMPE/DiSBAC2(3) as follows.
Patch clamp electrophysiology was used to assess the efficacy and selectivity of sodium channel blockers in dorsal root ganglion neurons. Rat neurons were isolated from the dorsal root ganglions and maintained in culture for 2 to 10 days in the presence of NGF (50 ng/ml) (culture media consisted of NeurobasalA supplemented with B27, glutamine and antibiotics). Small diameter neurons (nociceptors, 8-12 μm in diameter) have been visually identified and probed with fine tip glass electrodes connected to an amplifier (Axon Instruments). The “voltage clamp” mode has been used to assess the compound's IC50 holding the cells at −60 mV. In addition, the “current clamp” mode has been employed to test the efficacy of the compounds in blocking action potential generation in response to current injections. The results of these experiments have contributed to the definition of the efficacy profile of the compounds.
TTX-resistant sodium currents were recorded from DRG somata using the whole-cell variation of the patch clamp technique. Recordings were made at room temperature (˜22° C.) with thick walled borosilicate glass electrodes (WPI; resistance 3-4 MΩ) using an Axopatch 200B amplifier (Axon Instruments). After establishing the whole-cell configuration, approximately 15 minutes were allowed for the pipette solution to equilibrate within the cell before beginning recording. Currents were lowpass filtered between 2-5 kHz and digitally sampled at 10 kHz. Series resistance was compensated 60-70% and was monitored continuously throughout the experiment. The liquid junction potential (−7 mV) between the intracellular pipette solution and the external recording solution was not accounted for in the data analysis. Test solutions were applied to the cells with a gravity driven fast perfusion system (SF-77; Warner Instruments). […]

For assay [2] the following is noted: human, in vivo; cited from earlier work.
In assay [3] the target is NaV1.3 (Homo sapiens, UniProt Q9NY46). The note with it: read-out: TTX IC50; cited from earlier work.
NaV1.3, sequence (Q9NY46 whole entry, looked up): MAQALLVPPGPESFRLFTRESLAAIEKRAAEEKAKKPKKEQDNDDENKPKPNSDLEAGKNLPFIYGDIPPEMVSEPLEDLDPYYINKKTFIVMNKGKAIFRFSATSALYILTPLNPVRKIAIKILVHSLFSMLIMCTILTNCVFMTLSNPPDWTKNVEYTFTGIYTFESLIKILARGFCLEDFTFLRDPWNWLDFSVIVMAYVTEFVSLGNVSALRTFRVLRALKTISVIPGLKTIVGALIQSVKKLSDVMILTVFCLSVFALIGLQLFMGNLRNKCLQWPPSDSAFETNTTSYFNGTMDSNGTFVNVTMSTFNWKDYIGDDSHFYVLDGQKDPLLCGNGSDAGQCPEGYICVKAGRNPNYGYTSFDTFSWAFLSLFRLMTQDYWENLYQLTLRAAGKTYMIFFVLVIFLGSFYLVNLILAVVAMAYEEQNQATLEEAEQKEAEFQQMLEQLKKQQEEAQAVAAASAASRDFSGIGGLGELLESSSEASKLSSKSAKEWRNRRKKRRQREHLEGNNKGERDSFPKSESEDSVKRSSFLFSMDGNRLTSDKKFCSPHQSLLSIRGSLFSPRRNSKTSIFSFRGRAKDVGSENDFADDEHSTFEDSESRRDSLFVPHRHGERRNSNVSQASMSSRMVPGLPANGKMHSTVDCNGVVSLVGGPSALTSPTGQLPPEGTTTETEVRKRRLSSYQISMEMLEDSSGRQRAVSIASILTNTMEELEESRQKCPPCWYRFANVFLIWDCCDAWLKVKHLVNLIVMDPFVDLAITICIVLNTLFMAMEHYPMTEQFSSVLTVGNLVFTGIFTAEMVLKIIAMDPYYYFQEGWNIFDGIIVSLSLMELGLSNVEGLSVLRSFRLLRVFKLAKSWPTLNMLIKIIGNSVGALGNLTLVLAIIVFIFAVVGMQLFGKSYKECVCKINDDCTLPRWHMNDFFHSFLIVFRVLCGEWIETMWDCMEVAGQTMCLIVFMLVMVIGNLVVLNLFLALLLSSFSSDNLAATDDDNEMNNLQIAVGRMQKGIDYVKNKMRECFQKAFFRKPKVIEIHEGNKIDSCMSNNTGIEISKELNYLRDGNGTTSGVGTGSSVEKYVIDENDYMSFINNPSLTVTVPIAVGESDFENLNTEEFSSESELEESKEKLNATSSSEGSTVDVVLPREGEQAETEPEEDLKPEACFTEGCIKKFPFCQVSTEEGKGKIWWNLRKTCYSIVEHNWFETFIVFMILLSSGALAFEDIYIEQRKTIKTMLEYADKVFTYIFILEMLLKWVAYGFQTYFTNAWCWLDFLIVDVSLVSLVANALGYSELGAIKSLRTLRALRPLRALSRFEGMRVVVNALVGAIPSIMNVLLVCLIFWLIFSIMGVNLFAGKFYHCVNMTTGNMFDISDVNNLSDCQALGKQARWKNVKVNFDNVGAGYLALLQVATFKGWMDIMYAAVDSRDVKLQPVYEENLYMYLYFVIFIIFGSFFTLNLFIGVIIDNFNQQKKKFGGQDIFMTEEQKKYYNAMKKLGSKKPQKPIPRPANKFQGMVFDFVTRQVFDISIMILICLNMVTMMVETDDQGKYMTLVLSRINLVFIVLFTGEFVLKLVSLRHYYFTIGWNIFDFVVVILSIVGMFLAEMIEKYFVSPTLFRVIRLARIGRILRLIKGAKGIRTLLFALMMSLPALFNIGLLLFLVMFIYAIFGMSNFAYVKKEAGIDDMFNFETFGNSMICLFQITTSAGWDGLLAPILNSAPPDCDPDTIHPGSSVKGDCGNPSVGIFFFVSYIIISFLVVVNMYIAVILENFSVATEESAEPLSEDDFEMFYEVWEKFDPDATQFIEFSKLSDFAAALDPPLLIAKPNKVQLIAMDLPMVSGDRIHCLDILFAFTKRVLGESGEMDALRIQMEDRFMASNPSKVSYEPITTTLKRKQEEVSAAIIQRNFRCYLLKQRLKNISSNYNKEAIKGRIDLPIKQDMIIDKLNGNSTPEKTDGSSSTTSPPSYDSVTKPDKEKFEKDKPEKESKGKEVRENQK
The target in assay [4] is NaV1.6 (Homo sapiens, UniProt Q9UQD0). The note with it: read-out: TTX IC50; cited from earlier work.
Assay [5] addresses T1, NaV1.8. The note with it: read-out: TTX IC50; cited from earlier work.
Assay [6] concerns the target NaV1.9 (Homo sapiens, UniProt Q9UI33). The note with it: read-out: TTX IC50; cited from earlier work.
Assay [7] concerns the target NaV1.1 (Homo sapiens, UniProt P35498). The note with it: read-out: TTX IC50; cited from earlier work.
For assay [8], the target named is NaV1.2 (Homo sapiens, UniProt Q99250). The note with it: read-out: TTX IC50; cited from earlier work.
NaV1.2, sequence (Q99250 whole entry, looked up): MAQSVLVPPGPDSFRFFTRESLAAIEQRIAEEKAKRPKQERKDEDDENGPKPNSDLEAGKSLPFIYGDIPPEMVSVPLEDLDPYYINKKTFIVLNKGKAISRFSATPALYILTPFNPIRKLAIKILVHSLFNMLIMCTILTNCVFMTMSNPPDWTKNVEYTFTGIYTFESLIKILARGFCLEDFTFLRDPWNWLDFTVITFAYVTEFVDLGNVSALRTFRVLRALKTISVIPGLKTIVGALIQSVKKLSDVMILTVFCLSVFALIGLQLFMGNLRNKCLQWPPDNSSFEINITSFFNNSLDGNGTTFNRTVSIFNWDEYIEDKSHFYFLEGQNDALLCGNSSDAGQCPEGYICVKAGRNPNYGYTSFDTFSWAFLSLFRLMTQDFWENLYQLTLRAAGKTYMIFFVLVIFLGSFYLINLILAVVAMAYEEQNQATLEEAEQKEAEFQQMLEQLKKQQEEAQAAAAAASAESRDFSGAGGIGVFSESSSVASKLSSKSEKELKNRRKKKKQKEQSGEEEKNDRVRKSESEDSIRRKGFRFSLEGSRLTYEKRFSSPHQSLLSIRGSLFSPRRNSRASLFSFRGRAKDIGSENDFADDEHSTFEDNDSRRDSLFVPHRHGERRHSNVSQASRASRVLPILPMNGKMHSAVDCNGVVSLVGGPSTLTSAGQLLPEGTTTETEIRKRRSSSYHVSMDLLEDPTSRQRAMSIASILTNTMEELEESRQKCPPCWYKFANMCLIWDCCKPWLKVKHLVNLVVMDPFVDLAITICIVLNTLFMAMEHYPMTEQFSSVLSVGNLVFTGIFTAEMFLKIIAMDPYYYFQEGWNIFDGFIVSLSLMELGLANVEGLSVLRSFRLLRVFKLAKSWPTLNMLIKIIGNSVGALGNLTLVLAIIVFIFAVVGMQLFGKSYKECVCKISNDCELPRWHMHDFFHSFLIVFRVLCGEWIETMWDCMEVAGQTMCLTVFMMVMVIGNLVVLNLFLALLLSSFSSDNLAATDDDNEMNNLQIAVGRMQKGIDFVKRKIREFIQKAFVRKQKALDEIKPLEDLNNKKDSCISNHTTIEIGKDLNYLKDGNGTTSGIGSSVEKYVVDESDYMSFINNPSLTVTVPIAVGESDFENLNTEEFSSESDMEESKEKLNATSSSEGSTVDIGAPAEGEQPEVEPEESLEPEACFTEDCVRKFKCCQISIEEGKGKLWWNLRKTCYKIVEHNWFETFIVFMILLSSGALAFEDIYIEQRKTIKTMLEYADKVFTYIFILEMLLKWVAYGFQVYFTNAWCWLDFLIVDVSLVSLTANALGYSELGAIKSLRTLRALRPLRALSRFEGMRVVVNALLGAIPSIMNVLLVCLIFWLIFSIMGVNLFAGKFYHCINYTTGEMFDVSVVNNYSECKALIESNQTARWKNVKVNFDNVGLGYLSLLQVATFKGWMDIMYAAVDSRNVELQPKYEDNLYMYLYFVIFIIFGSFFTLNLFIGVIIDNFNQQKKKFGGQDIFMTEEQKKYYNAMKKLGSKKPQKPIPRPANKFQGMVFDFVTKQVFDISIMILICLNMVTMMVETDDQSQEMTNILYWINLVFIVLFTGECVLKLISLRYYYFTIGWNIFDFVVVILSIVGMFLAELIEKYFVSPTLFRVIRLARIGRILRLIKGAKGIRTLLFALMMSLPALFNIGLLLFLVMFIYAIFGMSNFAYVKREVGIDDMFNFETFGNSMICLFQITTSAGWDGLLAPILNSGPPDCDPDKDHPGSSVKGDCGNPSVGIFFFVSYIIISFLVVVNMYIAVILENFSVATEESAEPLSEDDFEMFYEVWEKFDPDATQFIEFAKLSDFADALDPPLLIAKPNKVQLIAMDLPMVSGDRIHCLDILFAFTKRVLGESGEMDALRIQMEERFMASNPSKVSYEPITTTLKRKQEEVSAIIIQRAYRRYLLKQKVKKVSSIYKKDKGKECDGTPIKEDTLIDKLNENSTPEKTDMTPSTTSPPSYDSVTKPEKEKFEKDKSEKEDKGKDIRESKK

Like-named read-outs stand apart in the source and are kept apart here.

As usually defined, the IC50 is the concentration that inhibits the measured activity by half. For `Oc1ccccc1-c1nc(N2CCOCC2)c2sc(-c3ccc(F)cc3)cc2n1` [Compound 1, 2-(6-(4-Fluorophenyl)-4-morpholinothieno[3,2-d]pyrimidin-2-yl)phenol], the IC50 in assay [1] is over 20 µM.

`Cc1cc(C)c2c(n1)sc1c(N3CCOCC3)nc(-c3ccccc3O)nc12` [Compound 2]: the half-inhibitory concentration (IC50) in assay [1] is over 20 µM.

Turning to `Cc1csc2nc(-c3ccccc3O)nc(N3CCN(C(=O)OCC(C)C)CC3)c12` [Compound 4, Isobutyl 4-(2-(2-hydroxyphenyl)-5-methylthieno[2,3-d]pyrimidin-4-yl)piperazine-1-carboxylate], the IC50 in assay [1] was over 20 µM.

Consider `CCCCS(=O)(=O)N1CCN(c2nc(-c3ccccc3O)nc3scc(C)c23)CC1` [Compound 5, 2-(4-(4-(butylsulfonyl)piperazin-1-yl)-5-methylthieno[2,3-d]pyrimidin-2-yl)phenol], for which, in assay [1], the IC50 is over 20 µM.

Regarding `Cc1csc2nc(-c3ccccc3O)nc(N3CCC(NC(=O)OCC(C)C)CC3)c12` [Compound 6, Isobutyl 1-(2-(2-hydroxyphenyl)-5-methylthieno[2,3-d]pyrimidin-4-yl)piperidin-4-ylcarbamate], in assay [1], the concentration for half-maximal inhibition (IC50) is over 20 µM.

For `CC(C)COC(=O)N1CCN(c2nc(-c3ccccc3O)nc3ccsc23)CC1` [Compound 7, Isobutyl 4-(2-(2-hydroxyphenyl)thieno[3,2-d]pyrimidin-4-yl)piperazine-1-carboxylate], the IC50 in assay [1] was under 5 µM.

On to `CC(C)COC(=O)NC1CCN(c2nc(-c3ccccc3O)nc3ccsc23)CC1` [Compound 8, Isobutyl 1-(2-(2-hydroxyphenyl)thieno[3,2-d]pyrimidin-4-yl)piperidin-4-ylcarbamate], for which the half-inhibitory concentration (IC50) in assay [1] is under 5 µM.

As to `NCC1(CC(=O)O)CCCCC1` [Gabapentin], the “patients in whom it works” value in assay [2] is 60%.

Regarding `NC1=N[C@H](O)[C@H]2[C@H]3O[C@]4(O)O[C@@H]([C@@H](O)[C@@]2(N1)[C@@H]4O)[C@]3(O)CO` [TTX, tetrodotoxin], the 50% inhibitory concentration (IC50) is 0.015 µM in assay [3]; 0.006 µM in assay [4]; over 50 µM in assay [5]; 1 µM in assay [6]; 0.01 µM in assay [7]; 0.01 µM in assay [8].
